{"source": "ChEMBL document CHEMBL1255508", "about": "“Neopetrosiamine A, biologically active bis-piperidine alkaloid from the Caribbean sea sponge Neopetrosia proxima” (Bioorg Med Chem Lett, 2010)", "key": {"Malme-3M": {"tested_on": "Malme-3M", "assay": "[…] activity against human MALME-3M cells", "assay_type": "functional, cell-based"}, "CCRF-CEM": {"tested_on": "CCRF-CEM", "assay": "[…] activity against human CCRF-CEM cells", "assay_type": "functional, cell-based"}, "MCF7": {"tested_on": "MCF7", "assay": "[…] activity against human MCF7 cells", "assay_type": "functional, cell-based"}, "[1]": {"tested_on": "Mycobacterium tuberculosis", "assay": "Antimycobacterial activity against Mycobacterium tuberculosis H37Rv by microplate alamar blue assay", "assay_type": "functional"}, "Vero": {"tested_on": "Vero", "assay": "Cytotoxicity against african green monkey Vero cells", "assay_type": "cell-based", "conditions": "Chlorocebus sabaeus"}, "Plasmodium falciparum": {"tested_on": "Plasmodium falciparum", "assay": "Antiplasmodial activity against Plasmodium falciparum", "assay_type": "functional, organism-based"}}, "data": [{"smiles": "C1=C\\CCCCN2CC[C@@H]3[C@@H](CCCC/C=C\\CCCCN4C[C@H](CCCC/1)C[C@H]3C4)C2", "note": "[NEOPETROSIAMINE A]", "values": [{"measurement": "IC50", "setting": "Malme-3M", "result": 1500, "unit": "nM"}, {"measurement": "IC50", "setting": "CCRF-CEM", "result": 2000, "unit": "nM"}, {"measurement": "IC50", "setting": "MCF7", "result": 3500, "unit": "nM"}, {"measurement": "MIC", "setting": "[1]", "result": 7.5, "unit": "µg/mL"}, {"measurement": "IC50", "setting": "Vero", "result": 42.4, "unit": "µg/mL"}, {"measurement": "IC50", "setting": "Plasmodium falciparum", "result": 2300, "unit": "nM"}]}]}
